Assays:
[1] = target: T1, GjALDH2C3 (Gardenia jasminoides, UniProt A0A288W8F8); assay: in vitro oxidation, UPLC-DAD and LC-MS; type: biochemical; details: products crocetin and crocetin semialdehyde
T1 sequence (A0A288W8F8 1-503): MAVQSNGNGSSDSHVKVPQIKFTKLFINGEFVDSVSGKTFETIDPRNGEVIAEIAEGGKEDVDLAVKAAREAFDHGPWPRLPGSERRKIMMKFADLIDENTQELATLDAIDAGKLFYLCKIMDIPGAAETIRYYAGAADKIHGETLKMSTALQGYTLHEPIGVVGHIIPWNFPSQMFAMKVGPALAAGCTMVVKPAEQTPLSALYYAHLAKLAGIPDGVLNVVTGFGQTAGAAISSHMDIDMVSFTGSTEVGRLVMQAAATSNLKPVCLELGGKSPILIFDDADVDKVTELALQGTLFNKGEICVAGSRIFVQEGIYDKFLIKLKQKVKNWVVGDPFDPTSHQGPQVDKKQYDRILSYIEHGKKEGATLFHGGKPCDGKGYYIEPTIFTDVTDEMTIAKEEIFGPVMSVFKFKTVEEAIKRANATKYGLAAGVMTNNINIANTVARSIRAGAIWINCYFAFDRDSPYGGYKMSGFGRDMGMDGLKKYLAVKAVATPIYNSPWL

[2] = target: T2, GjUGT74F8 (Gardenia jasminoides, UniProt Z9ZI51R9R0); assay: in vitro glucosylation, UPLC-DAD and LC-MS; type: biochemical; details: products crocin III and crocin V
T2 sequence (Z9ZI51R9R0 1-457): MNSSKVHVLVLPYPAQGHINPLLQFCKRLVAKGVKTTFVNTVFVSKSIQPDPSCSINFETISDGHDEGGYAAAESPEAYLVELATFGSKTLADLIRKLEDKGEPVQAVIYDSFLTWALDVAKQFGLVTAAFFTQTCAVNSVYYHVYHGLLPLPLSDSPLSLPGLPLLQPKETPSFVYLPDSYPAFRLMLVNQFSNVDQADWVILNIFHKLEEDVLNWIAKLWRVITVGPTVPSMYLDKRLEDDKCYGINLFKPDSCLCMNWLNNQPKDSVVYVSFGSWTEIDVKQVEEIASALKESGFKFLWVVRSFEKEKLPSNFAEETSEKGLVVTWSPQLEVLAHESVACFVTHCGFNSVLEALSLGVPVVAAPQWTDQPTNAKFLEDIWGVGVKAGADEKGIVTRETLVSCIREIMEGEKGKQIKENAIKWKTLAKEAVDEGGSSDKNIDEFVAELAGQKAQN

[3] = target: T3, GjUGT75L6 (Gardenia jasminoides, UniProt F8WKW0); details: purification not stated in main text
T3 construct: gene UGT75L6

[4] = target: T2, GjUGT74F8; assay: in vitro de-glucosylation, UPLC-DAD and LC-MS; type: biochemical; details: reversible; product crocin IV
[5] = target: T4, GjUGT94E13 (Gardenia jasminoides, UniProt A0A288W8G7); assay: in vitro glucosylation, UPLC-DAD and LC-MS; type: biochemical; details: product crocin I
T4 sequence (A0A288W8G7 1-446): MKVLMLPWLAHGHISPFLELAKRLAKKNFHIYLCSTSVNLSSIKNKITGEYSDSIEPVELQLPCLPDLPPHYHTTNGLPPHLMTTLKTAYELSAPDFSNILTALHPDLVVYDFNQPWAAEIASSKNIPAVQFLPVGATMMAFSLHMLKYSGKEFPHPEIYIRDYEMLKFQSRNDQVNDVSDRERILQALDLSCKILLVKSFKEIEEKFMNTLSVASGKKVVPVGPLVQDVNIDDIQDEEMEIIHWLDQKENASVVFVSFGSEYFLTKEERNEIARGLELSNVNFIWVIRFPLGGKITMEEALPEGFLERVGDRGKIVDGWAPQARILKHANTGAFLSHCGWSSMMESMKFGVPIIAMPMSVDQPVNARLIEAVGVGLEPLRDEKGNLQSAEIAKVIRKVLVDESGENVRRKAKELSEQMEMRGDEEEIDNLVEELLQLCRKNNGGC

[6] = target: GjCCD4a (Gardenia jasminoides, UniProt A0A288W8F9); assay: in bacterio carotenoid cleavage, UPLC-DAD and LC-MS; details: E. coli accumulating zeaxanthin; product crocetin dialdehyde
GjCCD4a, sequence (A0A288W8F9 entry or part of it): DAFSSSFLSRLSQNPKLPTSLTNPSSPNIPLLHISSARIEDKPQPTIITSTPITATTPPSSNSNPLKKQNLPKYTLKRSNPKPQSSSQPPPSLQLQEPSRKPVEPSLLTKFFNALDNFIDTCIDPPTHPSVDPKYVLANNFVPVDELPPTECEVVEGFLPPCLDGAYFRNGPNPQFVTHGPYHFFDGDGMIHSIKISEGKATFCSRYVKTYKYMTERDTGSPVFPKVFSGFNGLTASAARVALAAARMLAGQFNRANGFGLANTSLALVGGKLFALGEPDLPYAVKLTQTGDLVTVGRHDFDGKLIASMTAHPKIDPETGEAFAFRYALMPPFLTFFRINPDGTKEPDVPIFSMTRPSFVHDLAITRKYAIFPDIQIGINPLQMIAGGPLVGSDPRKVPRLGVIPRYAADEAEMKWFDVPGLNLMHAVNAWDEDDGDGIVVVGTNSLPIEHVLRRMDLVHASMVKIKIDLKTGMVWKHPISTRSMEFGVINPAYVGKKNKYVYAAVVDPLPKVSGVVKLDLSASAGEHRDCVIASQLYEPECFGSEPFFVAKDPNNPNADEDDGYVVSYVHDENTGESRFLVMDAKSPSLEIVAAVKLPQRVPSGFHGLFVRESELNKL

T3 sequence (F8WKW0 whole entry): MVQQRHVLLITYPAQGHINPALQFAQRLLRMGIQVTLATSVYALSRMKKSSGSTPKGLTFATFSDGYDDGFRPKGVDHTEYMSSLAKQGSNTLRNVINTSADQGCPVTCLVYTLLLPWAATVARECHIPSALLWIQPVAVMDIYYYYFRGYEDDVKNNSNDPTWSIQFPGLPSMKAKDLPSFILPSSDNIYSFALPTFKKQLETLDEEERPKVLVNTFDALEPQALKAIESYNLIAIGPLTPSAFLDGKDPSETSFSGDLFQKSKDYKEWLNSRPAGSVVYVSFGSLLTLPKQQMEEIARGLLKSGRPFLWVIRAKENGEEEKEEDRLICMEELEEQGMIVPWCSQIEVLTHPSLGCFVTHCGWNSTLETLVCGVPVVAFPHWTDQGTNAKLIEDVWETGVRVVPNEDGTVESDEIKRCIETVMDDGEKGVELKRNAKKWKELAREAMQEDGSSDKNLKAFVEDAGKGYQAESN

## C\C(C=O)=C/C=C/C(C)=C/C=C/C=C(C)/C=C/C=C(\C)C=O [crocetin dialdehyde]
[1]
  in vitro oxidation, UPLC-DAD and LC-MS: Incubation of crocetin dialdehyde with GjALDH2C3 yielded two new peaks

## CC(/C=C/C=C(\C)C(=O)O)=C\C=C\C=C(C)\C=C\C=C(/C)C(=O)O [crocetin]
[2]
  in vitro glucosylation, UPLC-DAD and LC-MS: Upon in vitro incubation of GjUGT74F8 with crocetin, two new peaks
[3]
  in vitro glucosylation, UPLC: GjUGT75L6, and GjUGT94E13, were able to glycosylate crocetin and/or crocins

## CC(/C=C/C=C(\C)C(=O)O[C@@H]1O[C@H](CO)[C@@H](O)[C@H](O)[C@H]1O)=C\C=C\C=C(C)\C=C\C=C(/C)C(=O)O[C@@H]1O[C@H](CO[C@@H]2O[C@H](CO)[C@@H](O)[C@H](O)[C@H]2O)[C@@H](O)[C@H](O)[C@H]1O [crocin II]
[4]
  in vitro de-glucosylation, UPLC-DAD and LC-MS: reversible conversion of crocin II to crocin IV and vice versa was observed
[5]
  in vitro glucosylation, UPLC-DAD and LC-MS: GjUGT94E13 could efficiently catalyze the glycosylation of crocins II and III to crocin I

## CC1=C(/C=C/C(C)=C/C=C/C(C)=C/C=C/C=C(C)/C=C/C=C(C)/C=C/C2=C(C)C[C@@H](O)CC2(C)C)C(C)(C)C[C@H](O)C1 [zeaxanthin]
[6]
  in bacterio carotenoid cleavage, UPLC-DAD and LC-MS: a new product with a retention time and characteristic fragment ions
